# Assays:
# Experiment in all cases: SILAC LC-MS ATP acyl phosphate probe competition, native kinases in HEK293T
# Assay type in all cases: binding
# [1] = biological target: T1, NEK3 (Serine/threonine-protein kinase Nek3) (Homo sapiens, UniProt P51956); conditions: site ACT; ATP 1 mM; Ketanserin, Ritanserin 100 μM; RF001 1 mM
# T1 construct: Native kinases; endogenous in cells; host or cells: HEK293T soluble proteome
# T1 sequence (P51956 1-506): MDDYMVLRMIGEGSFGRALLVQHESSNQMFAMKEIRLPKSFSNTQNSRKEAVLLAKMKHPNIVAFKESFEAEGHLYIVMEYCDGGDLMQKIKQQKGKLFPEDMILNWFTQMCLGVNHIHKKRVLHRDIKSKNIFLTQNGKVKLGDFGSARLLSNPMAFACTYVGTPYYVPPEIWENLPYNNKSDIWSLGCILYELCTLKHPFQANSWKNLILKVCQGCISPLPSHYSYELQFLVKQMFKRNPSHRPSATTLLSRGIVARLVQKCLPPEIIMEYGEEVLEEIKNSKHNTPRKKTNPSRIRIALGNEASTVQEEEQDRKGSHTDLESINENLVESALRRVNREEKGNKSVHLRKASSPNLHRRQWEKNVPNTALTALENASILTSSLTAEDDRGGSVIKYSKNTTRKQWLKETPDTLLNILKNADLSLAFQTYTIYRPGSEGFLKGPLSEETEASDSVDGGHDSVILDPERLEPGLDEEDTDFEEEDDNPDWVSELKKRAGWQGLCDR
# In short: (§1)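 HEK293T SILAC proteomes, 2 mg/ml; heavy + compound (from 50× DMSO stock), light + DMSO, 30 min, 25° C. Mix 1:1, MeOH/CHCl3 extraction, DTT/iodoacetamide, trypsin/Lys-C 3 h 37° C. Avidin enrichment of desthiobiotin-modified peptides; Orbitrap Q Exactive Plus LC-MS, top-10 DDA.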
# [2] = biological target: T2, KS6B2 (Ribosomal protein S6 kinase 2) (Homo sapiens, UniProt Q9UBS0); conditions: site Lys2; ATP 1 mM; Ketanserin, Ritanserin 100 μM; RF001 1 mM
# T2 construct: measured against >50 native kinases quantified in HEK293T soluble proteomes; endogenous in cells; host or cells: HEK293T soluble proteome
# In short: as §1
# [3] = biological target: T3, M4K5 (Mitogen-activated protein kinase kinase kinase kinase 5) (Homo sapiens, UniProt Q9Y4K4); conditions: ATP 1 mM, Ketanserin, Ritanserin 100 μM, RF001 1 mM; for SILAC ratio, M4K5 Lys1 probe-modified peptide: site Lys1; for SILAC ratio, M4K5 Lys2 probe-modified peptide: site Lys2
# T3 construct: Native kinases; endogenous in cells; host or cells: HEK293T soluble proteome
# In short: as §1
# [4] = biological target: T4, M3K4 (Mitogen-activated protein kinase kinase kinase 4) (Homo sapiens, UniProt Q9Y6R4); conditions: site Lys2; ATP 1 mM; Ketanserin, Ritanserin 100 μM; RF001 1 mM
# T4 construct: Native kinases; endogenous in cells; host or cells: HEK293T soluble proteome
# In short: as §1
# [5] = biological target: T5, CDK1 (Cell division control protein 2 homolog) (Homo sapiens, UniProt P06493); conditions: site Lys2; ATP 1 mM; Ketanserin, Ritanserin 100 μM; RF001 1 mM
# T5 construct: measured against >50 native kinases quantified in HEK293T soluble proteomes; endogenous in cells; host or cells: HEK293T soluble proteome
# In short: as §1
# [6] = biological target: T6, IRAK1 (Interleukin-1 receptor-associated kinase 1) (Homo sapiens, UniProt P51617); conditions: site Lys2; ATP 1 mM; Ketanserin, Ritanserin 100 μM; RF001 1 mM
# T6 construct: measured against >50 native kinases quantified in HEK293T soluble proteomes; endogenous in cells; host or cells: HEK293T soluble proteome
# In short: as §1
# [7] = biological target: T7, CSK (Tyrosine-protein kinase CSK) (Homo sapiens, UniProt P41240); conditions: site ACT; ATP 1 mM; Ketanserin, Ritanserin 100 μM; RF001 1 mM
# T7 construct: measured against >50 native kinases quantified in HEK293T soluble proteomes; endogenous in cells; host or cells: HEK293T soluble proteome
# In short: as §1
# [8] = biological target: T8, KCC1D (Calcium/calmodulin-dependent protein kinase type 1D) (Homo sapiens, UniProt Q8IU85); conditions: site Lys1; ATP 1 mM; Ketanserin, Ritanserin 100 μM; RF001 1 mM
# T8 construct: measured against >50 native kinases quantified in HEK293T soluble proteomes; endogenous in cells; host or cells: HEK293T soluble proteome
# In short: as §1
# T8 sequence (Q8IU85 whole entry): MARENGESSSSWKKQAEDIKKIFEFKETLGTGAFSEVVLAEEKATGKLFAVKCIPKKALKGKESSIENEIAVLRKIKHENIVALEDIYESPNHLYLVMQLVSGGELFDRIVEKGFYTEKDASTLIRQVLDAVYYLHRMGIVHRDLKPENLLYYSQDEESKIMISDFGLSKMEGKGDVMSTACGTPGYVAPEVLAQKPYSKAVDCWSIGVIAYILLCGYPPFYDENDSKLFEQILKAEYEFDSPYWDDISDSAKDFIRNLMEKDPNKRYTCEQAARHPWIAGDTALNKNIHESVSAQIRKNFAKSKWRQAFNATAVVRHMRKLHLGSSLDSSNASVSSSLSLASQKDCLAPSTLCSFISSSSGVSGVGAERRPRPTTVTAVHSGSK
# T3 sequence (Q9Y4K4 whole entry): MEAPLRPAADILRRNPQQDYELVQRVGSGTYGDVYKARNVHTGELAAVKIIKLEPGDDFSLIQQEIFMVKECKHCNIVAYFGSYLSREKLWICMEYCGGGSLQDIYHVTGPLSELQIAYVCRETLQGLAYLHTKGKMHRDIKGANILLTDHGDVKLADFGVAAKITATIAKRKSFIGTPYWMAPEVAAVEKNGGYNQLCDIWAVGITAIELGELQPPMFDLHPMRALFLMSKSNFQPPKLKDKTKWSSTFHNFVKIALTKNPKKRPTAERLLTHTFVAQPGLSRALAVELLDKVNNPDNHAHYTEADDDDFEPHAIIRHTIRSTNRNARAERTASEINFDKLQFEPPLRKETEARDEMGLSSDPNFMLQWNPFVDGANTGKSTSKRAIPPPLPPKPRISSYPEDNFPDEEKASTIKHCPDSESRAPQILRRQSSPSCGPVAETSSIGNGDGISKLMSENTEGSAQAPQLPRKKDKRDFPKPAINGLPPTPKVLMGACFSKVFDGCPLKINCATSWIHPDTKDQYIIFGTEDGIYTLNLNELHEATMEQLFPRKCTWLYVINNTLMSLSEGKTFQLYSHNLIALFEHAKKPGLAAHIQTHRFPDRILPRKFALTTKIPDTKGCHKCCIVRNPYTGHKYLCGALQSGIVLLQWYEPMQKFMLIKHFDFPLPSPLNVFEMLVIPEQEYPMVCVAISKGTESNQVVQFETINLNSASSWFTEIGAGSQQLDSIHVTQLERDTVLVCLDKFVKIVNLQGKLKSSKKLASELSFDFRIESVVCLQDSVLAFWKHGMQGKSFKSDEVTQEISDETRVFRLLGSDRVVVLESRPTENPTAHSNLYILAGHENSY
# T7 sequence (P41240 whole entry): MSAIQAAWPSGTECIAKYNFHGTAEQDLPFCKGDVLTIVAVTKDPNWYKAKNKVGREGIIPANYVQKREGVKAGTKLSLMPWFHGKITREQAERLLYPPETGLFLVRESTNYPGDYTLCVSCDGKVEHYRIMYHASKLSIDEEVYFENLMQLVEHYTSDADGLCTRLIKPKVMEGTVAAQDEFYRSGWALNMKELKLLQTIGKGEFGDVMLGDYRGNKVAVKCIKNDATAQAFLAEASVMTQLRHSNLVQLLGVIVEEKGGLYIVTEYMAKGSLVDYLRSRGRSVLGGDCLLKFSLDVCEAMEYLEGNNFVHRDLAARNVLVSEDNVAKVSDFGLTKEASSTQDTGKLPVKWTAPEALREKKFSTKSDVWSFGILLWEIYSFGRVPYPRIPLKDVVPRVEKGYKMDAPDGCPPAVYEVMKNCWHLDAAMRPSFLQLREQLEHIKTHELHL
# T4 sequence (Q9Y6R4 whole entry): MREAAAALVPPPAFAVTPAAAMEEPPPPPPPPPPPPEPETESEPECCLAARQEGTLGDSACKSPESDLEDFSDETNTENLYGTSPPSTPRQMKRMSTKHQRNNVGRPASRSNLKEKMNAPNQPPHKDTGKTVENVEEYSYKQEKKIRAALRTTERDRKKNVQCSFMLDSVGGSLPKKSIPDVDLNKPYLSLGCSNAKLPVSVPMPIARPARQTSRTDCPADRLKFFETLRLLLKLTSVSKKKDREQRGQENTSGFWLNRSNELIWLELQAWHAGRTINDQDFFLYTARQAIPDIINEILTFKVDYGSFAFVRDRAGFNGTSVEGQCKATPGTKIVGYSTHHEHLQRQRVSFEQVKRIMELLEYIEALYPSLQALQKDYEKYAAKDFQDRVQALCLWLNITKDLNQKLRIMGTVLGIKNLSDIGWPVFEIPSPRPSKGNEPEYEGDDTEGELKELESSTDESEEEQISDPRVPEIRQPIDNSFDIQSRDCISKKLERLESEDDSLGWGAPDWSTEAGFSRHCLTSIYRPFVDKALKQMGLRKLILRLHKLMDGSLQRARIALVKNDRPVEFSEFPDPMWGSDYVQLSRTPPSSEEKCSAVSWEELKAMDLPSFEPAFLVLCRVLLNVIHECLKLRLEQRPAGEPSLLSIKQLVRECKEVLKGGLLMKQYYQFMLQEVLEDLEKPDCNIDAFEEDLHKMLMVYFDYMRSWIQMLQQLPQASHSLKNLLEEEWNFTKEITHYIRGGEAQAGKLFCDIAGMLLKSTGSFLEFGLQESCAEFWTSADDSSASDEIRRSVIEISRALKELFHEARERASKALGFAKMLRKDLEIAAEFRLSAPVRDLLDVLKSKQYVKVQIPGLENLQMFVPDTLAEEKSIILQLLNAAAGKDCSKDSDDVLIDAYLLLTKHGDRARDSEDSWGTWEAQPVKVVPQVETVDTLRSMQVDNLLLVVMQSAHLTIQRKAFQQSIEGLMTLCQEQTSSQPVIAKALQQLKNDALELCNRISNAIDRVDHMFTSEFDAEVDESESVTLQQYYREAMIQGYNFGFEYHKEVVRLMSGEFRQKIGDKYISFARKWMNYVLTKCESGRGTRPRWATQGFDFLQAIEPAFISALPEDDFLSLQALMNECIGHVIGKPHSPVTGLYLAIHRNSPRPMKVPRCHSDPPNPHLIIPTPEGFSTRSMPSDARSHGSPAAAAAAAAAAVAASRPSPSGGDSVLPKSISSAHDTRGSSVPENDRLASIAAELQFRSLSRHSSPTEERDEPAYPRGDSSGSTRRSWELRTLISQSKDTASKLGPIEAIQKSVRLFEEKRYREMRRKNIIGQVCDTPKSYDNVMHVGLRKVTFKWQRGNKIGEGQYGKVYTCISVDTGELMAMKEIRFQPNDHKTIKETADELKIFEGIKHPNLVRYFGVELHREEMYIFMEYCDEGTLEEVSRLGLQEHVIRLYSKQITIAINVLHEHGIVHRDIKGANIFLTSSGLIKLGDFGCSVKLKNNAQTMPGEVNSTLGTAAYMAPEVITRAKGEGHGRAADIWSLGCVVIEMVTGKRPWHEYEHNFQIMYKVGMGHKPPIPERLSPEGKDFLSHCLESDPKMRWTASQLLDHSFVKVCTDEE
# T2 sequence (Q9UBS0 whole entry): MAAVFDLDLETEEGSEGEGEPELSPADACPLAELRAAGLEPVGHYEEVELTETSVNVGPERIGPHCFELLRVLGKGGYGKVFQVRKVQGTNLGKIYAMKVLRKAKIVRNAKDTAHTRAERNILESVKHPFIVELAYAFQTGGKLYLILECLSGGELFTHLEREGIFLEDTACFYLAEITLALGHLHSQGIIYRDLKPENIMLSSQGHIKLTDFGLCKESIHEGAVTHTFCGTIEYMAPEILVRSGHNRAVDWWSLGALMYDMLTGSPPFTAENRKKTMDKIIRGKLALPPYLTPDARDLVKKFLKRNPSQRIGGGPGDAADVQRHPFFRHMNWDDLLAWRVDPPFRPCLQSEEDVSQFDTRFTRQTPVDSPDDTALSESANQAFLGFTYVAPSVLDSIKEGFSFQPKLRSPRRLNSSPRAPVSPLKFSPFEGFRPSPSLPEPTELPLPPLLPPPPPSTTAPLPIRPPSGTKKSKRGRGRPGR
# T5 sequence (P06493 whole entry): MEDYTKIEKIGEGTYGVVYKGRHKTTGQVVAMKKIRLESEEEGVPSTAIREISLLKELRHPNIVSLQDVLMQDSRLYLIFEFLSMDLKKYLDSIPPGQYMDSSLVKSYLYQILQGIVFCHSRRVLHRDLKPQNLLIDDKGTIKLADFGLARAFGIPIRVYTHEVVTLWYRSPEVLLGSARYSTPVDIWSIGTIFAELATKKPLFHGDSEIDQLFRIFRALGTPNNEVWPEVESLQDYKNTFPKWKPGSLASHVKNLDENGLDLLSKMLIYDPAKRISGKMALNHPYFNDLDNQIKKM
# T6 sequence (P51617 whole entry): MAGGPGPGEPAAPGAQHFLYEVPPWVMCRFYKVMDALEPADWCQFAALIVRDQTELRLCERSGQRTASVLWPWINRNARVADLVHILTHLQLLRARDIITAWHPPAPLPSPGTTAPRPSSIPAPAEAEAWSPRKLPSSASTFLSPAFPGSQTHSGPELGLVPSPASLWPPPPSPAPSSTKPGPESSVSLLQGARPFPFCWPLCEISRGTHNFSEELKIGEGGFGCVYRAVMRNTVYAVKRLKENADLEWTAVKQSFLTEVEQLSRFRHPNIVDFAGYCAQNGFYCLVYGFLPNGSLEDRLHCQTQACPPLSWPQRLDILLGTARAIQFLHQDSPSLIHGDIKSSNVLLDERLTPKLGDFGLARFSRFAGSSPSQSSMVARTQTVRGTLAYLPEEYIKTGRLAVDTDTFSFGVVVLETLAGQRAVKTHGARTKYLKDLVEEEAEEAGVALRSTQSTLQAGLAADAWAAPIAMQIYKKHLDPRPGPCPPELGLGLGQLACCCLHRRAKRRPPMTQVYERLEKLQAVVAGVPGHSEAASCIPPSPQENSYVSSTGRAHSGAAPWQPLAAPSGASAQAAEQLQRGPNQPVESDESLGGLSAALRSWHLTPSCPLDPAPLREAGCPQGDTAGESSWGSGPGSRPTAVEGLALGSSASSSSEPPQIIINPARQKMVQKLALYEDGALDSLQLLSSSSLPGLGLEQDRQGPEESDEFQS
SMILES,"SILAC ratio, NEK3 probe-modified peptide [1]","SILAC ratio, KS6B2 probe-modified peptide [2]","SILAC ratio, M4K5 Lys1 probe-modified peptide [3]","SILAC ratio, M4K5 Lys2 probe-modified peptide [3]","SILAC ratio, M3K4 probe-modified peptide [4]","SILAC ratio, CDK1 probe-modified peptide [5]","SILAC ratio, IRAK1 probe-modified peptide [6]","SILAC ratio, CSK probe-modified peptide [7]","SILAC ratio, KCC1D probe-modified peptide [8]"
O=C(c1ccc(F)cc1)C1CCN(CCn2c(=O)[nH]c3ccccc3c2=O)CC1 [Ketanserin],1.0,1.1,1.3,1.3,1.2,1.4,1.4,1.2,1.5
"Fc1ccc(C(=C2CCNCC2)c2ccc(F)cc2)cc1 [RF001, 4-(Bis(4-fluorophenyl)methylene) piperidine]",1.0,1.7,0.9,1.3,0.8,1.1,2.2,1.1,1.1
Cc1nc2sccn2c(=O)c1CCN1CCC(=C(c2ccc(F)cc2)c2ccc(F)cc2)CC1 [Ritanserin],2.2,1.4,2.4,1.9,1.9,2.4,2.6,1.8,2.3

# Source: US12643867B2, “Compositions and uses thereof” (University of Virginia Patent Foundation, priority 2017, dated 2026)
